Experimental data reported in patent US4596808A, “Pharmacologically active 3-substituted beta-carbolines useful as tranquilizers” (Schering Aktiengesellschaft, priority 1980, dated 1986).
Where two headings read alike, the source gives them in different places.

Experiments:
benzodiazepine receptor [1] = assay: In vivo inhibition of 3H-flunitrazepam binding to the benzodiazepine receptor in living brain (ED50); conditions: mice, subcutaneous, 3H-flunitrazepam i.v. 15 min later
benzodiazepine receptor [2] = assay: Displacement of 3H-flunitrazepam from benzodiazepine receptors in vitro (IC50); format: binding; conditions: rat forebrain, 3H-flunitrazepam 1.0 nM, 0° C.
Excerpt: For example, it is known that certain locations in the central nervous system of vertebrates have a high specific affinity for bonding 1,4 and 1,5-benzodiazepines. (See, e.g., R. F. Squires & C. Braestrup, Nature [London] 266 [1977], 734, which is incorporated by reference herein). These locations are called benzodiazepine receptors.
This displacement activity of the compounds of this invention has been determined by measuring IC50 and ED50 values. The IC50 value is the concentration which causes a 50% displacement of the specific binding of ^3 H-flunitrazepam (1.0 nM, 0° C.) in samples with a total volume of 0.55 ml of a suspension of brain membrane, e.g., from rats.
The displacement test is carried out as follows:
0.5 ml of a suspension of untreated rat forebrain in 25 mM KH2 PO4, at a pH of 7.1 (5-10 mg of tissue per sample) were incubated with ^3 H-diazepam (specific activity 14.4 Ci/millimole, 1.9 nM) or ^3 H-flunitrazepam (specific activity 87 Ci/millimole, 1.0 nM) for 40-60 minutes at 0° C. After incubation, the suspension is filtered through a glass frit, the residue is washed twice with a cold buffer solution and the radioactivity is measured by scintillation counting.
The test is then repeated, except prior to addition of the radioactively marked benzodiazepine, a given amount or an excess amount of the compound whose displacement activity is to be ascertained, is added. The IC50 value can then be computed from the test results obtained.

[3] = test system: pentazole-induced convulsions; assay: Antagonism of pentazole-induced convulsions; format: in vivo; conditions: sc
Excerpt: Moreover, the antagonism of pentazole-induced convulsions was investigated.
The test has been performed according to known test models in pharmacology,e.g., described in R. A. Turner, Screening Methods in Pharmacology, Academic Press, N.Y. and London 1965, esp. p. 164 ff., or, Woodbury, P. M., Perry, I. K. and Schmidt, R. P. Antiepileptic Drugs, Raven Press, N.Y. 1972.

[4] = clonic, read-out: Antagonism of pentazole-induced convulsions, ED50 s.c., Clonic convulsions
[5] = death, read-out: Antagonism of pentazole-induced convulsions, ED50 s.c., Death
[6] = tonic, read-out: Antagonism of pentazole-induced convulsions, ED50 s.c., Tonic convulsions

| SMILES | In vivo ED50, inhibition of 3H flunitrazepam binding (Affinity for the benzodiazepine receptor) (benzodiazepine receptor [1]) [mg/kg] | In vitro IC50, inhibition of 3H flunitrazepam binding (Affinity for the benzodiazepine receptor) (benzodiazepine receptor [2]) [µg/mL] | ED50 [3, 4] [mg/kg] | ED50 [3, 5] [mg/kg] | ED50 [3, 6] [mg/kg] |
| --- | --- | --- | --- | --- | --- |
| CCCCC(=O)c1cc2c(cn1)[nH]c1ccccc12 [COCH2 CH2 CH2 CH3, 3-pentanoyl-beta-carboline] | 144 | 0.02 | – | – | – |
| CONC=NC(=O)c1cc2c(cn1)[nH]c1ccccc12 | > 250 | 0.1 | – | – | – |
| Cc1noc(-c2cc3c(cn2)[nH]c2ccccc23)n1 | 15 | 0.00056 | – | – | – |
| CN(C)N=Cc1cc2c(cn1)[nH]c1ccc(S(=O)(=O)N(C)C)cc12 [drawing 32] | 35 | 0.004 | – | – | – |
| C(=NN1CCOCC1)c1cc2c(cn1)[nH]c1ccccc12 [drawing 44] | – | – | 100 | 50 | 50 |
| C(=NN1CCCCC1)c1cc2c(cn1)[nH]c1ccccc12 [drawing 43] | – | – | > 100 | > 100 | 50 |
| O=C(N=CNO)c1cc2c(cn1)[nH]c1ccccc12 [CONCHNHOH, N-[(hydroxyamino)methylene]-beta-carboline-carboxamide] | 93 | – | – | – | – |
| c1ccc2c(c1)[nH]c1cnc(-c3nc[nH]n3)cc12 | 26 | 0.104 | – | – | – |
| C(=NOCc1ccccc1)c1cc2c(cn1)[nH]c1ccccc12 [CHNOCH2 C6 H5, beta-carboline-3-carboxaldehyde-oxime-benzylether] | > 250 | 0.0525 | – | – | – |
| Cc1nc(-c2cc3c(cn2)[nH]c2ccccc23)n(C)n1 | > 300 | 0.179 | – | – | – |
| CCCCC(=NO)c1cc2c(cn1)[nH]c1ccccc12 | > 250 | 0.468 | – | – | – |
| CN(C)N=Cc1cc2c(cn1)[nH]c1ccccc12 [drawing 13] | 54 | 0.0417 | – | – | – |
| CC(=NN(C)C)c1cc2c(cn1)[nH]c1ccccc12 [drawing 25] | 119 | > 0.1 | – | – | – |
| C(=NNc1ccccc1)c1cc2c(cn1)[nH]c1ccccc12 [CHNNHC6 H5, beta-carboline-3-carboxaldehyde-phenylhydrazone] | > 250 | – | – | – | – |
| NC(=O)NN=Cc1cc2c(cn1)[nH]c1ccccc12 [CHNNHCONH2, beta-carboline-3-carboxaldehyde-semicarbazone] | > 250 | > 0.1 | – | – | – |
| Cn1cnc(-c2cc3c(cn2)[nH]c2ccccc23)n1 | 145 | > 0.4 | – | – | – |
| CCOC(=O)CC(=O)c1cc2c(cn1)[nH]c1ccccc12 [COCH2 COOC2 H5, 3-carboethoxy-acetyl-beta-carboline] | > 250 | – | – | – | – |
| C(=NN1CCCC1)c1cc2c(cn1)[nH]c1ccccc12 [drawing 31] | 49 | > 0.1 | – | – | – |
| C(=Nn1cnnc1)c1cc2c(cn1)[nH]c1ccccc12 | > 250 | > 0.1 | – | – | – |
| CN1CCN(N=Cc2cc3c(cn2)[nH]c2ccccc23)CC1 | 210 | 0.1 | – | – | – |

| SMILES | In vivo ED50, inhibition of 3H flunitrazepam binding (Affinity for the benzodiazepine receptor) (benzodiazepine receptor [1]) [mg/kg] | In vitro IC50, inhibition of 3H flunitrazepam binding (Affinity for the benzodiazepine receptor) (benzodiazepine receptor [2]) [µg/mL] | ED50 [3, 4] [mg/kg] | ED50 [3, 5] [mg/kg] | ED50 [3, 6] [mg/kg] |
| --- | --- | --- | --- | --- | --- |
| O=C(c1ccccc1)c1cc2c(cn1)[nH]c1ccccc12 [COC6 H5, 3-benzoyl-beta-carboline] | 223 | 0.00427 | – | – | – |
| CCN(CC)N=Cc1cc2c(cn1)[nH]c1ccccc12 [drawing 41] | – | – | > 100 | 100 | 100 |
| CNC(=O)CC(=O)c1cc2c(cn1)[nH]c1ccccc12 [COCH2 CONHCH3] | > 250 | > 0.1 | – | – | – |
| O=C1CC(c2cc3c(cn2)[nH]c2ccccc23)=NO1 | 100 | 0.156 | – | – | – |
| O=CNC(=O)c1cc2c(cn1)[nH]c1ccccc12 [CONHCHO, beta-carboline-3-(N-formylcarboxamide)] | 197 | 0.034 | – | – | – |
| CNN=Cc1cc2c(cn1)[nH]c1ccccc12 [CHNNHCH3, beta-carboline-3-carboxaldehyde-methylhydrazone] | 92 | 0.149 | – | – | – |
| CC(=NO)c1cc2c(cn1)[nH]c1ccccc12 [drawing 11] | 186 | > 0.1 | – | – | – |
| C(=NN1CCCC1)c1cc2c(cn1)[nH]c1ccccc12 [drawing 45] | – | – | 20 | 15 | 15 |
| O=C1CC(c2cc3c(cn2)[nH]c2ccccc23)=NN1 | > 250 | > 0.1 | – | – | – |
| CN(C)C=NC(=O)c1cc2c(cn1)[nH]c1ccccc12 | > 250 | 0.09 | – | – | – |
| CN(C)S(=O)(=O)c1ccc2[nH]c3cnc(C=O)cc3c2c1 [CHO, drawing 30, 6-dimethylsulfamoyl-beta-carboline-3-carboxaldehyde] | > 300 | > 0.1 | – | – | – |
| C(=NN1CCOCC1)c1cc2c(cn1)[nH]c1ccccc12 [drawing 28] | > 250 | > 0.1 | – | – | – |
| CN(C)S(=O)(=O)c1ccc2[nH]c3cnc(C=NN4CCCC4)cc3c2c1 [drawing 34] | 210 | 0.008 | – | – | – |
| CC(=O)ON=Cc1cc2c(cn1)[nH]c1ccccc12 [CHNOCOCH3] | > 250 | 0.169 | – | – | – |
| CCN(CC)N=Cc1cc2c(cn1)[nH]c1ccccc12 [drawing 23] | 72 | > 0.1 | – | – | – |
| C(=NN1CCCCC1)c1cc2c(cn1)[nH]c1ccccc12 [drawing 27] | > 250 | > 0.1 | – | – | – |
| CN1N=C(c2cc3c(cn2)[nH]c2ccccc23)CC1=O | > 250 | > 0.4 | – | – | – |
| CN(C)S(=O)(=O)c1ccc2[nH]c3cnc(C=NO)cc3c2c1 [CHNOH, drawing 36] | 300 | 0.0017 | – | – | – |
| Cc1n[nH]c(-c2cc3c(cn2)[nH]c2ccccc23)n1 | 139 | 0.096 | – | – | – |
| ON=Cc1cc2c(cn1)[nH]c1ccccc12 [CHNOH, beta-carboline-3-carboxaldehyde-oxime] | 19 | 0.0087 | – | – | – |
